# Laboratory results: patent US8470892B2, “Method of inducing neovascularization” (priority 2010, dated 2013)
# Experiments:
# complement system [1] = assay: Dependence of PEG-8 induced CNV on complement: depletion with Cobra Venom Factor; type: in vivo, mice
# Method: To investigate dependence of PEG-8 induced CNV on complement system activation, the complement system in the mice was depleted by intraperitoneal administration of Cobra Venom Factor. Four groups of animals were used (n=5 mice in each group). Group 1 and 2 were treated intraperitoneal with 4 U of cobra venom factor as described in the inventors' previous publication for 2 days before and every day after subretinal injections. Group 3 and 4 were injected intraperitoneal with vehicle (0.9% Sodium Chloride).
# The mice were then injected with subretinal PEG-8 and investigated at day 5 after treatment. […] RPE-choroids of these mice were stained for MAC by IHC and investigated flat mounts using confocal microscopy. Areas of high MAC deposition in animals treated with saline (FIG. 4B) were found but not in CVF treated group (FIG. 4C).
# Male C57BL/6 mice = assay: CNV induction by subretinal injection of PEG-8 (FITC-dextran perfused RPE-choroid-sclera flat mounts); type: in vivo
# Method: Male C57BL/6 mice (7-9 weeks old) were anesthetized with Ketamine (80 mg/kg) and Xylazine (20 mg/kg) prior to subretinal injection. One eye was decompressed with 27G needle by inserting the needle through the limbus and sclera. Microinjector UMP3 equipped with Nanofil syringe 100 μL and 33G blunt needle (Word Precision Instruments) was used for injections. The needle was inserted into the incision created by decompression. Movement of the needle was stopped when light resistance was felt by operator. Solutions (single injection of 2 μL) were injected slowly for 5 seconds in the subretinal space. All manipulations were performed under visual control using microscope. Detachment of the retina was visible through the lens. The second eyes of mice were not injected.
# To investigate dose dependent effect of PEG-8 (Polyethylene glycol 400) the inventors divided the animals into 7 groups: one control group (n=3 mice) which was not treated at all, group 2 (n=3 mice) received a single subretinal injection of vehicle (2 μL of 0.9% sterile sodium chloride), and five experimental groups which were injected with different doses of PEG-8: 2.0 mg, 1.0 mg, 0.5 mg, 0.25 mg and 0.125 mg. PEG-8 was dissolved in vehicle before injection. Doses of PEG-8 were delivered to the one experimental eye in 2 μL respectively. To determine optimal dose of PEG-8, the inventors performed histological examination and investigation of flat mounted RPE-choroid-sclera complexes after perfusion of animals with FITC-dextran solution at day 14 after injection.
# To investigate the time course of CNV after PEG-injection, the animals were injected with 1.0 mg of PEG-8 subretinally and 5 mice from each group were sacrificed at day 1, 3, 5, 7, 14, 21, 28, and 42 post-injection. […] CNV reached maximal size at day 5 and was present until at least day 42.
# To evaluate the CNV size, the animals were perfused through their heart with 0.75 ml of phosphate-buffered saline (PBS) containing 50 mg/ml of fluorescein-labeled dextran (FITC-Dextran, 2 million average mw) before they were sacrificed. The eyes were harvested and fixed for 4 hours in 10% phosphate buffered formalin and RPE-choroid-sclera flat mounts were prepared. The RPE-choroid-sclera complexes were mounted in ProLong Antifade reagent with the sclera facing down and were examined under a ZEISS LSM 510 laser confocal microscope.
# Confocal microscopy of flat mounted RPE-choroids perfused with FITC-dextran was performed and investigated with semi thin (1 μm) embedded sections at day 5 after injection when CNV was fully developed. […] After PEG-8 injection, CNV was located between two layers of RPE cells in subretinal space (FIGS. 3B, D, F). No vessels originated from retina was found (FIG. 3D). 5 μm paraffin section of control (saline) and PEG-8 injected mice at day 1 were investigated, 3 and 5 after treatment. RPE cells in control groups formed single layer of cells and endothelial cells were found within choroid (FIG. 3G). Starting from day 1 after PEG-8 treatment, zones of affected RPE cell structure were discovered with increased size, irregular shape and presence of space between neighboring RPE cells (FIG. 3H). Isolectin-IB4 positively labeled cells located between affected RPE cells were found at day 1, 3 and 5 after injection (FIGS. 3H-J). Isolectin-IB4 positive had contact with choroidal Isolectin-IB4 positive capillaries and formed vessels in subretinal tissue between existing and newly formed RPE cell layers (FIG. 3J).
# complement system [2] = assay: Activation of the complement system by PEG-8 in serum and RPE-choroid; type: in vivo, mice
# Method: Activation of the complement system by PEG-8 was also studied in the RPE-choroid and in the blood. PEG-8 or saline was injected subretinally and animals were sacrificed at day 1, 3 and 5 after treatment. Total complement activation was studied in the serum. Levels of C3 split products and MAC were investigated in RPE-choroid tissue. […] PEG-8 and saline injected animals at day 3 and 5 had the same levels of total C3 (43 kDa and 23 kDA), but levels of C3 (43 kDa) were higher in PEG-8 treated animals compared to saline injected mice (FIGS. 5C, D).
# VEGF = VEGF levels by ELISA in posterior part of the eyes after PEG-8; type: in vivo, mice
# [3] = subretinal PEG-8, day 1, 3 and 5
Substance,"total complement activity in serum vs saline injected animals (complement system [1]; 4 U CVF intraperitoneal, day 5 after subretinal PEG-8, p<0.05)","reduction of CNV size (area of FITC-dextran perfused vessels) (complement system [1]; CVF intraperitoneal, PEG-8 induced CNV, day 5, p<0.05) [fold]","MAC positive fluorescence in RPE-choroid, saline treated animals compared to CVF injected mice (complement system [1]; IHC flat mounts, day 5, p<0.05)","CNV size and frequency compared between doses (Male C57BL/6 mice; 1.0 mg dose, day 14)","frequency of CNV (Male C57BL/6 mice; 1.0 mg subretinal, day 14 after injection)","CNV present until (Male C57BL/6 mice; 1.0 mg subretinal, time course) [days]","first signs of CNV detected (Male C57BL/6 mice; 1.0 mg subretinal, time course) [days]","time at which CNV reached maximal size (Male C57BL/6 mice; 1.0 mg subretinal, time course) [days]",damage of RPE-choroid after subretinal injection (Male C57BL/6 mice; compared to laser treatment or surgical procedures),"occurrence of CNV (Male C57BL/6 mice; doses 2.0, 1.0, 0.5, 0.25 and 0.125 mg subretinal, day 14)","MAC levels in RPE-choroid vs saline treated animals (Western blotting) (complement system [2]; all investigated time points (day 1, 3, 5))",C3 split products levels in RPE-choroid vs saline injected mice (complement system [2]; day 1 post-injection only),levels of C3 (43 kDa) vs saline injected mice (complement system [2]; day 3 and 5),levels of total C3 (43 kDa and 23 kDA) vs saline (complement system [2]; day 3 and 5),alternative complement activity in mouse serum (complement system [2]; [3]),total complement activity in mouse serum (complement system [2]; [3]),VEGF in intra- and extracellular fraction of proteins from posterior part of the eyes (VEGF)
CVF,significantly reduced,3,significantly higher,,,,,,,,,,,,,,
Polyethylene glycol 400 [PEG-8],,,,largest size and frequency,4.4 sites of CNV per eye,≥ 42,3,5,much smaller,CNV in all investigated groups,approximately three fold higher,three-fold increase,higher,same levels,did not affect,did not affect,increase of VEGF
